Experimental data published in paper PMC12298624, “Anti-Infective Properties, Cytotoxicity, and In Silico ADME Parameters of Novel 4′-(Piperazin-1-yl)benzanilides” (Pharmaceuticals, 2025).
Where two headings read alike, the source gives them in different places.

What was measured:
P. falciparum NF54 = test: In vitro microplate assay against P. falciparum NF54 (3H-hypoxanthine incorporation); format: cell-based, Plasmodium falciparum; conditions: Plasmodium falciparum
Protocol: Serial drug dilutions of eleven 3-fold dilution steps covering a range from 100 to 0.002 µg/mL were prepared. […] After 48 h of incubation time, 0.05 mL of ^3H-hypoxanthine (=0.5 µCi) was added to each well of the plate. The plates were incubated for a further 24 h under the same conditions. Plates were then harvested using a BetaplateTM cell harvester (Wallac, Zurich, Switzerland). Red blood cells were transferred onto a glass fiber filter and then washed with distilled aqua demin. The dried filters were inserted into a plastic foil with 10 mL of scintillation fluid and counted in a BetaplateTM liquid scintillation counter (Wallac, Zurich, Switzerland). IC50 values were calculated from sigmoidal inhibition curves by linear regression using Microsoft Excel. […] Louis, MO, USA) was used as control.

[1] = Resazurin-based in vitro cytotoxicity with L-6 cells; format: cell-based, rat
Protocol: Serial drug dilutions of eleven 3-fold dilution steps covering a range from 100 to 0.002 µg/mL were prepared. After 70 h of incubation, the plates were inspected under an inverted microscope to assure growth of the controls and sterile conditions. […] The plates were read with a Spectramax Gemini XS microplate fluorometer (Molecular Devices Cooperation, Sunnyvale, CA, USA) using an excitation wavelength of 536 nm and an emission wavelength of 588 nm. IC50 values were calculated by linear regression from the sigmoidal dose–inhibition curves using SoftmaxPro software Version 8.2.1 (Molecular Devices Cooperation, Sunnyvale, CA, USA). Podophyllotoxin (Sigma P4405) was used as control.

[2] = Resazurin-based in vitro cytotoxicity with HepG2 cells; format: cell-based, human; conditions: HepG2 cells; human hepatocarcinoma cells, 48 h
Protocol: The HepG2 cells were washed with DPBS (Dulbecco’s PBS without calcium and magnesium, Gibco, Cat #21600-044) and trypsinized with trypsin solution in DPBS. Trypsinization was stopped by adding culture medium, and after being stained with Trypan Blue (SORS Ukraine) cells were counted using a counting chamber (Hausser Scientific, Cat #3500). The cell suspension was placed in a falcon tube containing plating medium DMEM/High glucose with 1% fetal bovine serum, 100 units/mL penicillin, and 100 µg/mL streptomycin. Cells at a density of 250,000 cells/mL were seeded in sterile 384-well plates (Greiner Bio-One, Cat #781091) in a volume of […] and incubated at 37 °C and 5% CO2. Serial dilutions of ten 3-fold dilution steps of test and reference compounds covering a range from 100.0 to 0.005 µM were added to the wells, followed by incubation at 37 °C and 5% CO2 for 48 h. Then, resazurin (50 µM final concentration) was added and plates were incubated for another 3 h. The plates were read with a SpectraMax microplate reader (Molecular Devices Cooperation, Sunnyvale, CA, USA)) using an extinction wavelength of 555 nm and an emission wavelength of 570 nm. IC50 values were calculated using GraphPad Prism 9.0 charting software. Doxorubicin (Sigma Aldrich D1515) was used as control.

[3] = Parallel artificial membrane permeability assay (PAMPA); conditions: for Papp at 5 h, 200 µM: PAMPA, pH 7.4, Pe, PBS pH 7.4, 200 µM, room temperature; for Pe: PAMPA standards
Protocol: With the high-throughput PAMPA the newly synthesized compounds were tested for their passive permeability through cell membranes without the influence of efflux pumps or transporter proteins. The assay was performed using a Corning® Gentest^TM Precoated PAMPA Plate System (Corning, Glendale, AZ, USA) with 96-well polystyrene plates. The bottom of the acceptor plate consists of a porous membrane, whereby the pores are lined with a lipid–oil–lipid triple layer. Stock solutions of each test compound at 10 mM were prepared in DMSO or methanol and diluted with phosphate-buffered saline (PBS at a pH of 7.4) to a final concentration of 200 µM. […] The donor plate (bottom plate) was filled with the compound solutions, whereby all compounds were tested in quadruplicates. Each well of the acceptor plate (top plate) was filled with PBS buffer. Donor and acceptor plates were combined and incubated at room temperature for 5 h. After that, the plates were separated and 150 µL of each well of both plates were transferred to 96-well UV plates (Greiner Bio-One). Absorption at different wavelengths covering a range from 200 to 300 nm was measured using a SpectraMax M3 UV plate reader. […] The plates were analyzed at the wavelength where the R2 value of the calibration curve was higher than 0.99 [47].
Recovery of compounds from donor and acceptor wells (mass retention) was calculated as shown in the equation below. Data were only accepted when recovery exceeded 70%. The equation is as follows:(3) R=1−[cDt×VD+cAt×VA]/(c0×VD) where

[4] = test system: K. pneumoniae ATCC 700603; test: MIC/MBC microbroth dilution (EUCAST); format: cell-based; conditions: Klebsiella pneumoniae, ATCC700603
Protocol: (§1) Minimum inhibitory concentrations (MIC values) were obtained using the microbroth dilution method as stated in the EUCAST guidelines. Tests were conducted on cation adjusted Mueller–Hinton broth (caMHB) or agar (caMHA). These were prepared and stored following the manufacturer’s guidelines. Biological organisms were prepared via growth on either Luria–Bertani (LB) or cation adjusted Mueller–Hinton agar plates. These were grown for 24 h at 37 °C, except for Micrococcus luteus where MICs took longer to grow and as a consequence were read after 48 h once a clear positive control could be observed. For the MIC experiment, the bacteria were prepared using the McFarland 0.5 standard and diluted 1 in 100 or 1 in 10 in caMHB following EUCAST and CSLI guidelines for the preparation of bacteria. Testing of the compounds using the microbroth dilution method took place in 96-well plates. Serial 2-fold dilutions of compounds in caMHB covering a range from 256 µg/mL to 0.25 µg/mL were prepared. Bacteria preparations (McFarland) were added to the compound dilutions, further halving the compound concentrations. The plate was then incubated for 18 h at 37 °C. Controls for the MIC experiments included a bacterial growth (positive) control of bacteria and caMHB only and a media only (negative) control. After incubation, the plates were read, whereby the positive control of bacteria was visible and the negative control was clear of contamination. The last clear well, where there is no growth of bacteria, was counted as the MIC value. […] The lowest concentration without any bacterial growth was counted as the MBC value. The following pathogens were used: Pseudomonas aeruginosa NCTC 13437, Escherichia coli NCTC 13353, Bacillus subtilis 168a, Serratia marcescens NCTC 9940, Micrococcus luteus ATCC 10240, Staphylococcus aureus JE2 USA 300, Acinetobacter baumannii ATCC 19606, and Klebsiella pneumoniae ATCC 700603. A concentration range of 256 µg/mL to 0.25 µg/mL of a combination of ciprofloxacin and meropenem against E. coli 25922 was used as an antibiotic control to ensure correct dilution and performance of the assay.

P. aeruginosa NCTC 13437 = test: MIC/MBC microbroth dilution (EUCAST); format: cell-based; conditions: Pseudomonas aeruginosa, NCTC13437
Protocol: as §1

S. aureus JE2 USA 300 = test: MIC/MBC microbroth dilution (EUCAST); format: cell-based; conditions: Staphylococcus aureus, USA300, S. aureus JE2 USA 300
Protocol: as §1

S. marcescens NCTC 9940 = test: MIC/MBC microbroth dilution (EUCAST); format: cell-based; conditions: Serratia marcescens, NCTC9940
Protocol: as §1

E. coli NCTC 13353 = test: MIC/MBC microbroth dilution (EUCAST); format: cell-based, Escherichia coli; conditions: Escherichia coli
Protocol: as §1

A. baumannii ATCC 19606 = test: MIC/MBC microbroth dilution (EUCAST); format: cell-based, Acinetobacter baumannii; conditions: Acinetobacter baumannii
Protocol: as §1

B. subtilis 168a = test: MIC/MBC microbroth dilution (EUCAST); format: cell-based, Bacillus subtilis; conditions: Bacillus subtilis, 168A
Protocol: as §1

[5] = rat skeletal myofibroblasts, read-out: Cytotoxicity L-6 Cells IC50
[6] = NF54, chloroquine-sensitive strain NF54, erythrocytic stages, read-out: P.f.NF54 IC50

## CCN(CC)CCCC(C)Nc1ccnc2cc(Cl)ccc12 (centres unmarked) [CQ, chloroquine, reference compound]
P. falciparum NF54; NF54, read-out: P.f.NF54 IC50
  IC50: 0.009 µM
[1]; [5]
  IC50 at 70 h: 90.9 µM

## CN1CCN(c2ccccc2NC(=O)c2cccc(C(F)(F)F)c2Oc2ccc(F)cc2)CC1 [Compound 31, 2-(4-Fluorophenoxy)-N-[2-(4-methylpiperazin-1-yl)phenyl]-3-(trifluoromethyl)benzamide]
P. falciparum NF54; [6]
  IC50: 14 µM
[1]; rat
  IC50 at 70 h: 120 µM

## O=C(Nc1ccccc1N1CCOCC1)c1cccc(C(F)(F)F)c1Oc1ccc(F)cc1 [Compound 32, 2-(4-Fluorophenoxy)-N-[2-(morpholin-4-yl)phenyl]-3-(trifluoromethyl)benzamide]
P. falciparum NF54; [6]
  IC50: 3.04 µM
[1]; rat
  IC50 at 70 h: 161 µM
[2]
  IC50 at 48 h: > 100 µM
[3]
  Papp at 5 h, 200 µM: 6.63 ×10⁻⁶ cm/s

## O=C(Nc1ccc(N2CCOCC2)cc1)c1cccc(C(F)(F)F)c1Oc1ccc(F)cc1 [Compound 33, 2-(4-Fluorophenoxy)-N-[4-(morpholin-4-yl)phenyl]-3-(trifluoromethyl)benzamide]
P. falciparum NF54; [6]
  IC50: 6.81 µM
[1]; rat
  IC50 at 70 h: 195 µM
[2]
  IC50 at 48 h: 35.3 µM
[3]
  Papp at 5 h, 200 µM: 3.92 ×10⁻⁶ cm/s

## CN(C)c1ccccc1NC(=O)c1cccc(C(F)(F)F)c1Oc1ccc(F)cc1 [Compound 35, N-[2-(Dimethylamino)phenyl]-2-(4-fluorophenoxy)-3-(trifluoromethyl)benzamide]
P. falciparum NF54; [6]
  IC50: 4.4 µM
[1]; rat
  IC50 at 70 h: 25.1 µM

## CN(C)c1ccc(NC(=O)c2cccc(C(F)(F)F)c2Oc2ccc(F)cc2)cc1 [Compound 36, N-[4-(Dimethylamino)phenyl]-2-(4-fluorophenoxy)-3-(trifluoromethyl)benzamide]
P. falciparum NF54; [6]
  IC50: 7.58 µM
[1]; rat
  IC50 at 70 h: 239 µM
[2]
  IC50 at 48 h: > 100 µM

## CC(C)(C)OC(=O)N1CCN(C(=O)c2cccc(C(F)(F)F)c2Oc2ccc(F)cc2)CC1 [Compound 50, tert-Butyl-4-[2-(4-fluorophenoxy)-3-(trifluoromethyl)benzoyl]piperazine-1-carboxylate]
P. falciparum NF54; [6]
  IC50: 51.8 µM
[1]; rat
  IC50 at 70 h: 41.4 µM
[2]
  IC50 at 48 h: 35.2 µM
[3]
  Papp at 5 h, 200 µM: 1.82 ×10⁻⁶ cm/s

## O=C(Nc1ccccc1N1CCNCC1)c1cccc(C(F)(F)F)c1Oc1ccc(F)cc1 [Compound 53, 2-(4-Fluorophenoxy)-N-[2-(piperazin-1-yl)phenyl]-3-(trifluoromethyl)benzamide]
P. falciparum NF54; [6]
  IC50: 1.04 µM
[1]; rat
  IC50 at 70 h: 13.5 µM
[2]
  IC50 at 48 h: 4.1 µM
[3]
  Papp at 5 h, 200 µM: 6.39 ×10⁻⁶ cm/s

## CC(=O)Nc1ccc(Oc2c(C(=O)Nc3ccccc3N3CCNCC3)cccc2C(F)(F)F)cc1 [Compound 54, 2-(4-Acetamidophenoxy)-N-[2-(piperazin-1-yl)phenyl]-3-(trifluoromethyl) benzamide]
P. falciparum NF54; [6]
  IC50: 11.1 µM
[1]; rat
  IC50 at 70 h: 13.2 µM
[3]
  Papp at 5 h, 200 µM: 0.26 ×10⁻⁶ cm/s

## O=C(Nc1cccc(N2CCNCC2)c1)c1cccc(C(F)(F)F)c1Oc1ccc(F)cc1 [Compound 56, 2-(4-Fluorophenoxy)-N-[3-(piperazin-1-yl)phenyl]-3-(trifluoromethyl)benzamide]
P. falciparum NF54; [6]
  IC50: 5.45 µM
[1]; rat
  IC50 at 70 h: 34.2 µM
[2]
  IC50 at 48 h: 12.7 µM
[4]
  MBC: > 256 µg/mL
  MIC: > 256 µg/mL
P. aeruginosa NCTC 13437
  MBC: > 256 µg/mL
  MIC: 256 µg/mL
S. aureus JE2 USA 300
  MBC: 256 µg/mL
  MIC: 256 µg/mL
S. marcescens NCTC 9940
  MBC: > 256 µg/mL
  MIC: 256 µg/mL
E. coli NCTC 13353; NCTC13353
  MBC: > 256 µg/mL
E. coli NCTC 13353; NCTC13353, read-out: MIC
  MIC: 256 µg/mL
A. baumannii ATCC 19606; ATCC19606
  MBC: 256 µg/mL
A. baumannii ATCC 19606; ATCC19606, read-out: MIC
  MIC: 128 µg/mL
B. subtilis 168a
  MBC: 256 µg/mL
B. subtilis 168a; read-out: MIC
  MIC: 128 µg/mL
[3]
  Papp at 5 h, 200 µM: 7.03 ×10⁻⁶ cm/s

## CC(=O)Nc1ccc(Oc2c(C(=O)Nc3ccc(N4CCNCC4)cc3)cccc2C(F)(F)F)cc1 [Compound 63, 2-(4-Acetamidophenoxy)-N-[4-(piperazin-1-yl)phenyl]-3-(trifluoromethyl)benzamide]
P. falciparum NF54; [6]
  IC50: 15.7 µM
[1]; rat
  IC50 at 70 h: 113 µM

## O=C(Nc1ccc(N2CCNCC2)cc1)c1cccc(C(F)(F)F)c1 [Compound 66, N-[4-(Piperazin-1-yl)phenyl]-3-(trifluoromethyl)benzamide]
P. falciparum NF54; [6]
  IC50: 2.6 µM
[1]; rat
  IC50 at 70 h: 41.5 µM
[2]
  IC50 at 48 h: 11.8 µM
[3]
  Papp at 5 h, 200 µM: 3.91 ×10⁻⁶ cm/s

## COc1cccc2c1C(=O)c1c(O)c3c(c(O)c1C2=O)C[C@@](O)(C(=O)CO)C[C@@H]3O[C@H]1C[C@H](N)[C@H](O)[C@H](C)O1 [DOX, doxorubicin, reference compound]
[2]
  IC50 at 48 h: 0.3 µM

## COc1cc([C@@H]2c3cc4c(cc3[C@H](O)[C@H]3COC(=O)[C@H]23)OCO4)cc(OC)c1OC [POD, podophyllotoxin, reference compound]
[1]; [5]
  IC50 at 70 h: 0.012 µM

## Cn1c(=O)c2c(ncn2C)n(C)c1=O [caffeine, reference compound]
[3]
  Pe: 8 ×10⁻⁶ cm/s

## NS(=O)(=O)c1cc2c(cc1Cl)NCNS2(=O)=O [hydrochlorothiazide, reference compound]
[3]
  Pe: 0.09 ×10⁻⁶ cm/s
